Data on 23 compounds can be found in patent US20240245682A1, “ALPHA-V-BETA-8 INTEGRIN INHIBITORS AND USES THEREOF” (Pliant Therapeutics, Inc., priority 2022, published 2024).

A word on the IC50: it is the concentration that inhibits the measured activity by half.

Molecules are shown by their SMILES. Bounds are passed on as bounds.

Common to all, as to test: AlphaScreen proximity-based integrin binding assay with TGF-b1 LAP
Holding throughout (conditions): values given as ranges

One test concerns the target human integrin αVβ6 (Homo sapiens, UniProt P06756+P18564). The method, boiled down:
(§1)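 Purified human integrin incubated with compound, TGF-b1 LAP, biotinylated anti-LAP antibody and acceptor beads for 2 h, then streptavidin donor beads 30 min, room temperature, in 50 mM Tris-HCl pH 7.5, 0.1% BSA, 1 mM CaCl2/MgCl2. AlphaScreen signal (680 nm excitation, 520-620 nm emission); IC50 by four-parameter fit.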

In the next test the target is human integrin αVβ1 (Homo sapiens, UniProt P05556+P06756). The method, boiled down: as §1
human integrin αVβ1, sequence (P06756 31-992 limits assumed): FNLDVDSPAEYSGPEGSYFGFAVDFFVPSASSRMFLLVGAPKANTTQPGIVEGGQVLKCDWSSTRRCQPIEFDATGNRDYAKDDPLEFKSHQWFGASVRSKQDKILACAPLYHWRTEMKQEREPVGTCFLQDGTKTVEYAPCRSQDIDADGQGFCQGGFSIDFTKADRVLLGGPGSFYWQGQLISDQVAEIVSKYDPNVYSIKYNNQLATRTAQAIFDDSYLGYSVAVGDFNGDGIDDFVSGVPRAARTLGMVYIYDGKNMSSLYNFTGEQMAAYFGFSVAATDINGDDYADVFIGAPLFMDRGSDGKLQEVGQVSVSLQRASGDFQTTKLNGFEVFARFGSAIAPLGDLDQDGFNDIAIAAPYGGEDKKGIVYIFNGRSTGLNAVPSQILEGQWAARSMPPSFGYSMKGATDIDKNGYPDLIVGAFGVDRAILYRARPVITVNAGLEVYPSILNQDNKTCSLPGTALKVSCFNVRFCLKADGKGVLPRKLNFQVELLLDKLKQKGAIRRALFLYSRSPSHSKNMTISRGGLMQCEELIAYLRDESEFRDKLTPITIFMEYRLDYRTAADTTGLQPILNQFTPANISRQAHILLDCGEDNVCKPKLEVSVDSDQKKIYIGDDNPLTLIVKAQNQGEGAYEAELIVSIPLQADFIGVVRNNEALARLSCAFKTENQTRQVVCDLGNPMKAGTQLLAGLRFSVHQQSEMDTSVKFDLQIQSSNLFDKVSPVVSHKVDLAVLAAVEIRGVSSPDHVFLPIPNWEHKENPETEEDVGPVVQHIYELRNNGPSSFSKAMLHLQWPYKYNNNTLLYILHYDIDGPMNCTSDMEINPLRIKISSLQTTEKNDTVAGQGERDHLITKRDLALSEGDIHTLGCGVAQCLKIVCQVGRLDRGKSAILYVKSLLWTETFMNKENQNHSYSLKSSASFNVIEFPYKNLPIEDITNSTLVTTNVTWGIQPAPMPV
human integrin αVβ1, sequence (P05556 21-728 limits assumed): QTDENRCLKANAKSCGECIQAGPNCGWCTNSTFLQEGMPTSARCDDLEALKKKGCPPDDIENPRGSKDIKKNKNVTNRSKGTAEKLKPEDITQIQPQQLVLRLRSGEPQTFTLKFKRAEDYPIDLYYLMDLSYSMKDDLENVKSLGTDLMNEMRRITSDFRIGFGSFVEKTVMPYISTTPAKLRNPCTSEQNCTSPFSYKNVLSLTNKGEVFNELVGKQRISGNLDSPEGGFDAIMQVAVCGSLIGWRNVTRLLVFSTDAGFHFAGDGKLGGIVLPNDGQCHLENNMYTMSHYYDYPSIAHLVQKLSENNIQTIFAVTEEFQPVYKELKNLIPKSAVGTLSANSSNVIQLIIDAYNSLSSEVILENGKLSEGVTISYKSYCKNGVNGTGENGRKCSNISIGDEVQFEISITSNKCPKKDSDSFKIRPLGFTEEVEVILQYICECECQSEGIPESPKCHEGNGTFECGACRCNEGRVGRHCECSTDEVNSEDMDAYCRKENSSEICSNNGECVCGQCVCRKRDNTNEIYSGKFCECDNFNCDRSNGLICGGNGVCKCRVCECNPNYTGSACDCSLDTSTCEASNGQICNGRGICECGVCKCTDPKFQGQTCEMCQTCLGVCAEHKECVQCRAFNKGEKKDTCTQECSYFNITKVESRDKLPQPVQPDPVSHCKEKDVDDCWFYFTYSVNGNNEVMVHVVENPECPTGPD
Another test addresses human integrin αVβ8 (Homo sapiens, UniProt P06756+P26012). The method, boiled down:
as §1

human integrin αVβ8, sequence (P06756 31-992 limits assumed): as the sequence (P06756 31-992 limits assumed) above
human integrin αVβ8, sequence (P26012 43-684 limits assumed): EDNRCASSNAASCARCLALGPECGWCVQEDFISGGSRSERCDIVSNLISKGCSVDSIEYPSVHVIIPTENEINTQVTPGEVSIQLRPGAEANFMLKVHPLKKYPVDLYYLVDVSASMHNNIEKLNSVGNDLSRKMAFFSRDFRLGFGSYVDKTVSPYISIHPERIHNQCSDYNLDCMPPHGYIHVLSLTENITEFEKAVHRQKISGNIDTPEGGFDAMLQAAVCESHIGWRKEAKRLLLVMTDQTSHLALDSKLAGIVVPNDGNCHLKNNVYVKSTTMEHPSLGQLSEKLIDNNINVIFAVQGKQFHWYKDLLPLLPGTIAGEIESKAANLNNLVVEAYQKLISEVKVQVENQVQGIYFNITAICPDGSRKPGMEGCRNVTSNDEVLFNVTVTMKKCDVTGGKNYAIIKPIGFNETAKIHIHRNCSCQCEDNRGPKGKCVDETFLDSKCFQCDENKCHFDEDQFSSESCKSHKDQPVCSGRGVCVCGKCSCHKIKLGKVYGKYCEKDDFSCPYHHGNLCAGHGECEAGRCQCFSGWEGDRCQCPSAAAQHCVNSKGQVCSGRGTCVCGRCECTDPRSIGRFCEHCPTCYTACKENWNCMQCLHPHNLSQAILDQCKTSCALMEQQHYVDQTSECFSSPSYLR
human integrin αVβ6, sequence (P06756 31-992 limits assumed): as the sequence (P06756 31-992 limits assumed) above
human integrin αVβ6, sequence (P18564 22-707 limits assumed): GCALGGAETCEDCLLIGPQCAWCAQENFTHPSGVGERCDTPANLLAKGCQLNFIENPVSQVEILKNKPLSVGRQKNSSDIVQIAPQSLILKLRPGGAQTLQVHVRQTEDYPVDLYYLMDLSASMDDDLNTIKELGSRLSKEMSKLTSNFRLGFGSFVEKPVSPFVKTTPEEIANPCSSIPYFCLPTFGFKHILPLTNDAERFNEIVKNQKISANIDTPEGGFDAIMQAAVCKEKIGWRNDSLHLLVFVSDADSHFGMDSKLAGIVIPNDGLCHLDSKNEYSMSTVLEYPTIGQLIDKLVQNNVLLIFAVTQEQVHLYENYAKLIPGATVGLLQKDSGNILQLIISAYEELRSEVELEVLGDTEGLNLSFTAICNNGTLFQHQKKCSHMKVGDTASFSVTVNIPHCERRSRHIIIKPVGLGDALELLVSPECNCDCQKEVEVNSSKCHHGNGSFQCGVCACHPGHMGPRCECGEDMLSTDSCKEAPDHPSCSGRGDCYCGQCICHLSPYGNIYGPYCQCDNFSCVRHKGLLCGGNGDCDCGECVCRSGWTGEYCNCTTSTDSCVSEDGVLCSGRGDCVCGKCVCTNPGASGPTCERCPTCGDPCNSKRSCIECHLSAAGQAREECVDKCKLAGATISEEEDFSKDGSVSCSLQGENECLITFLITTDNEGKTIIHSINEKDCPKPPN

Regarding `Cc1ncc(Cl)c(C2(C(=O)N[C@@H](CCOCCCCc3ccc4c(n3)NCCC4)C(=O)O)CC2)n1` [Compound 73, N-(1-(5-chloro-2-methylpyrimidin-4-yl)cyclopropane-1-carbonyl)-O-(4-(5,6,7,8-tetrahydro-1,8-naphthyridin-2-yl)butyl)-L-homoserine], the IC50 on human integrin αVβ6 was at least 500 nM; at human integrin αVβ1, below 50 nM; at human integrin αVβ8, below 50 nM.

Consider `O=C(O)[C@H](CCOCCCCc1ccc2c(n1)NCCC2)NC(=O)C1(c2cn[nH]c2Cl)CC1` [Compound 74, N-(1-(5-chloro-1H-pyrazol-4-yl)cyclopropane-1-carbonyl)-O-(4-(5,6,7,8-tetrahydro-1,8-naphthyridin-2-yl)butyl)-L-homoserine], for which the IC50 on human integrin αVβ6 was at least 500 nM; at human integrin αVβ1, below 50 nM; at human integrin αVβ8, below 50 nM.

Take `Cn1cc(C#N)c(C2(C(=O)N[C@@H](CCOCCCCc3ccc4c(n3)NCCC4)C(=O)O)CC2)n1` [Compound 75, N-(1-(4-cyano-1-methyl-1H-pyrazol-3-yl)cyclopropane-1-carbonyl)-O-(4-(5,6,7,8-tetrahydro-1,8-naphthyridin-2-yl)butyl)-L-homoserine]: the IC50 on human integrin αVβ6 was at least 500 nM; at human integrin αVβ1, below 50 nM; at human integrin αVβ8 it was below 50 nM.

As for `O=C(O)[C@H](CCOCCCCc1ccc2c(n1)NCCC2)NC(=O)C1(c2c(Cl)cn[nH]c2=O)CC1` [Compound 76, N-(1-(5-chloro-3-oxo-2,3-dihydropyridazin-4-yl)cyclopropane-1-carbonyl)-O-(4-(5,6,7,8-tetrahydro-1,8-naphthyridin-2-yl)butyl)-L-homoserine], the values for the IC50 on human integrin αVβ6, at human integrin αVβ1 and at human integrin αVβ8 were at least 500 nM, below 50 nM and below 50 nM, respectively.

Take `Cn1cc(C(F)(F)F)c(C2(C(=O)N[C@@H](CCOCCCCc3ccc4c(n3)NCCC4)C(=O)O)CC2)n1` [Compound 77, N-(1-(1-methyl-4-(trifluoromethyl)-1H-pyrazol-3-yl)cyclopropane-1-carbonyl)-O-(4-(5,6,7,8-tetrahydro-1,8-naphthyridin-2-yl)butyl)-L-homoserine]: the IC50 at human integrin αVβ6 was at least 500 nM; on human integrin αVβ1, below 50 nM; on human integrin αVβ8, below 50 nM.

With `N#Cc1c[nH]nc1C1(C(=O)N[C@@H](CCOCCCCc2ccc3c(n2)NCCC3)C(=O)O)CC1` [Compound 78, N-(1-(4-cyano-1H-pyrazol-3-yl)cyclopropane-1-carbonyl)-O-(4-(5,6,7,8-tetrahydro-1,8-naphthyridin-2-yl)butyl)-L-homoserine], the IC50 was at least 500 nM at human integrin αVβ6, below 50 nM on human integrin αVβ1 and below 50 nM on human integrin αVβ8.

With `O=C(O)[C@H](CCOCCCCc1ccc2c(n1)NCCC2)NC(=O)C1(c2[nH]cnc2Cl)CC1` [Compound 79, N-(1-(4-chloro-1H-imidazol-5-yl)cyclopropane-1-carbonyl)-O-(4-(5,6,7,8-tetrahydro-1,8-naphthyridin-2-yl)butyl)-L-homoserine], the IC50 on human integrin αVβ6 is at least 500 nM; on human integrin αVβ1, below 50 nM; on human integrin αVβ8 it was below 50 nM.

As for `Cn1cnc(Cl)c1C1(C(=O)N[C@@H](CCOCCCCc2ccc3c(n2)NCCC3)C(=O)O)CC1` [Compound 80, N-(1-(4-chloro-1-methyl-1H-imidazol-5-yl)cyclopropane-1-carbonyl)-O-(4-(5,6,7,8-tetrahydro-1,8-naphthyridin-2-yl)butyl)-L-homoserine], the IC50 on human integrin αVβ6 is at least 500 nM; at human integrin αVβ1 it was below 50 nM; on human integrin αVβ8 it was below 50 nM.

With `O=C(Cc1ccccc1)N[C@@H](CCOCCCCc1ccc2c(n1)NCCC2)C(=O)O` [Compound 81, N-(2-phenylacetyl)-O-(4-(5,6,7,8-tetrahydro-1,8-naphthyridin-2-yl)butyl)-L-homoserine], the IC50 on human integrin αVβ6 is at least 500 nM; on human integrin αVβ1, below 50 nM; at human integrin αVβ8, 50 to 150 nM.

In the case of `O=C(O)[C@H](CCOCCCCc1ccc2c(n1)NCCC2)NC(=O)C1(c2ncsc2Cl)CC1` [Compound 82, N-(1-(5-chlorothiazol-4-yl)cyclopropane-1-carbonyl)-O-(4-(5,6,7,8-tetrahydro-1,8-naphthyridin-2-yl)butyl)-L-homoserine], the IC50 on human integrin αVβ6 is at least 500 nM; at human integrin αVβ1, below 50 nM; at human integrin αVβ8, below 50 nM.

As to `O=C(O)[C@H](CCOCCCCc1ccc2c(n1)NCCC2)NC(=O)C1(C(F)F)CCOC1` (stereo partly drawn) [Compound 83, N-(3-(difluoromethyl)tetrahydrofuran-3-carbonyl)-O-(4-(5,6,7,8-tetrahydro-1,8-naphthyridin-2-yl)butyl)-L-homoserine], the figures for the IC50 at human integrin αVβ6, at human integrin αVβ1 and on human integrin αVβ8 were 250 to 500 nM, below 50 nM and 50 to 150 nM, respectively.

Consider `O=C(O)[C@H](CCOCCCCc1ccc2c(n1)NCCC2)NC(=O)C1(C(F)(F)F)CCCCC1` [Compound 84, O-(4-(5,6,7,8-tetrahydro-1,8-naphthyridin-2-yl)butyl)-N-(1-(trifluoromethyl)cyclohexane-1-carbonyl)-L-homoserine], for which the IC50 on human integrin αVβ6 is 250 to 500 nM; at human integrin αVβ1, below 50 nM; on human integrin αVβ8, below 50 nM.

As to `O=C(O)[C@H](CCOCCCCc1ccc2c(n1)NCCC2)NC(=O)C1(c2ccc(F)cc2)CCOCC1` [Compound 85, N-(4-(4-fluorophenyl)tetrahydro-2H-pyran-4-carbonyl)-O-(4-(5,6,7,8-tetrahydro-1,8-naphthyridin-2-yl)butyl)-L-homoserine], the results for the IC50 on human integrin αVβ6, on human integrin αVβ1 and on human integrin αVβ8 were above 500 nM, below 50 nM and 50 to 150 nM, respectively.

Consider `O=C(O)[C@H](CCOCCCCc1ccc2c(n1)NCCC2)NC(=O)C1(c2cccc(C(F)(F)F)c2)CCOCC1` [Compound 86, O-(4-(5,6,7,8-tetrahydro-1,8-naphthyridin-2-yl)butyl)-N-(4-(3-(trifluoromethyl)phenyl)tetrahydro-2H-pyran-4-carbonyl)-L-homoserine], for which the IC50 on human integrin αVβ6 was above 500 nM; on human integrin αVβ1 it was below 50 nM; on human integrin αVβ8 it was below 50 nM.

For `COc1cccc(C2(C(=O)N[C@@H](CCOCCCCc3ccc4c(n3)NCCC4)C(=O)O)CCOCC2)c1` [Compound 87, N-(4-(3-methoxyphenyl)tetrahydro-2H-pyran-4-carbonyl)-O-(4-(5,6,7,8-tetrahydro-1,8-naphthyridin-2-yl)butyl)-L-homoserine], the IC50 at human integrin αVβ6 is above 500 nM; on human integrin αVβ1, below 50 nM; on human integrin αVβ8, below 50 nM.

For the compound `O=C(O)[C@H](CCOCCCCc1ccc2c(n1)NCCC2)NC(=O)C1(c2cccc(F)c2)CCOCC1` [Compound 88, N-(4-(3-fluorophenyl)tetrahydro-2H-pyran-4-carbonyl)-O-(4-(5,6,7,8-tetrahydro-1,8-naphthyridin-2-yl)butyl)-L-homoserine], the IC50 on human integrin αVβ6 was above 500 nM; on human integrin αVβ1, below 50 nM; on human integrin αVβ8, below 50 nM.

With `O=C(O)[C@H](CCOCCCCc1ccc2c(n1)NCCC2)NC(=O)C1(c2cccc(Cl)c2)CCOCC1` [Compound 89, N-(4-(3-chlorophenyl)tetrahydro-2H-pyran-4-carbonyl)-O-(4-(5,6,7,8-tetrahydro-1,8-naphthyridin-2-yl)butyl)-L-homoserine], the results for the IC50 on human integrin αVβ6, at human integrin αVβ1 and on human integrin αVβ8 were above 500 nM, below 50 nM and below 50 nM, respectively.

Consider `O=C(O)[C@H](CCOCCCCc1ccc2c(n1)NCCC2)NC(=O)C1(n2c(=O)ccc3ccccc32)CC1` [Compound 90, N-(1-(2-oxoquinolin-1(2H)-yl)cyclopropane-1-carbonyl)-O-(4-(5,6,7,8-tetrahydro-1,8-naphthyridin-2-yl)butyl)-L-homoserine], for which the IC50 at human integrin αVβ6 was above 500 nM; at human integrin αVβ1, 50 to 150 nM; on human integrin αVβ8 it was below 50 nM.

On to `O=C(O)[C@H](CCOCCCCc1ccc2c(n1)NCCC2)NC(=O)C1(n2c(C3CC3)cccc2=O)CC1` [Compound 91, N-(1-(6-cyclopropyl-2-oxopyridin-1(2H)-yl)cyclopropane-1-carbonyl)-O-(4-(5,6,7,8-tetrahydro-1,8-naphthyridin-2-yl)butyl)-L-homoserine], for which the concentration for half-maximal inhibition (IC50) on human integrin αVβ6 is above 500 nM; on human integrin αVβ1 it was below 50 nM; at human integrin αVβ8 it was 50 to 150 nM.

On to `COc1cccc(=O)n1C1(C(=O)N[C@@H](CCOCCCCc2ccc3c(n2)NCCC3)C(=O)O)CC1` [Compound 92, N-(1-(6-methoxy-2-oxopyridin-1(2H)-yl)cyclopropane-1-carbonyl)-O-(4-(5,6,7,8-tetrahydro-1,8-naphthyridin-2-yl)butyl)-L-homoserine], for which the IC50 is above 500 nM at human integrin αVβ6, 50 to 150 nM at human integrin αVβ1 and 50 to 150 nM at human integrin αVβ8.

Consider `O=C(O)[C@H](CCOCCCCc1ccc2c(n1)NCCC2)NC(=O)C1(n2c(F)cccc2=O)CC1` [Compound 93, N-(1-(6-fluoro-2-oxopyridin-1(2H)-yl)cyclopropane-1-carbonyl)-O-(4-(5,6,7,8-tetrahydro-1,8-naphthyridin-2-yl)butyl)-L-homoserine], for which the IC50 was above 500 nM at human integrin αVβ6, below 50 nM on human integrin αVβ1 and below 50 nM on human integrin αVβ8.

In the case of `O=C(O)[C@H](CCOCCCCc1ccc2c(n1)NCCC2)NC(=O)C1(n2c(Br)cccc2=O)CC1` [Compound 94, N-(1-(6-bromo-2-oxopyridin-1(2H)-yl)cyclopropane-1-carbonyl)-O-(4-(5,6,7,8-tetrahydro-1,8-naphthyridin-2-yl)butyl)-L-homoserine], the figures for the IC50 at human integrin αVβ6, on human integrin αVβ1 and on human integrin αVβ8 were above 500 nM, below 50 nM and below 50 nM, respectively.

Turning to `NC(=O)c1cccc(F)c1C1(C(=O)N[C@@H](CCOCCCCc2ccc3c(n2)NCCC3)C(=O)O)CC1` [Compound 95, N-(1-(2-carbamoyl-6-fluorophenyl)cyclopropane-1-carbonyl)-O-(4-(5,6,7,8-tetrahydro-1,8-naphthyridin-2-yl)butyl)-L-homoserine], the IC50 on human integrin αVβ6 was above 500 nM; on human integrin αVβ1 it was 50 to 150 nM; at human integrin αVβ8, 50 to 150 nM.
